Assays:
Assay type in all cases: physicochemical
[1] = Yellowing (ASTM D 1925) after UV exposure in Weather-O-meter WRC 600, ABS/SAN/polycarbonate blend (Example 1); settings: Weather-O-meter WRC 600, 2 mm plates
Experimental: Dieses Copolymer wird in Pulverform mit derselben Menge von Styrolacrylnitril-copolymer (Suspension SAN, Ube Cycon) und der doppelten Menge von pulverförmigem Polycarbonat (PC 135, General Electric), mit gegebenenfalls weiteren Additiven, wie z.B. einem UV-Absorber, in einem Rhönrad vermischt. Die Mischung wird in einem Zweischnecken-Extruder (Temperatur-Zyklus: 165°C, 250°C, 275°C, 275°C, 270°C; Umdrehungen/Minute: 45) hergestellt.
Die erhaltenen Mischungen werden in einer Heizpresse bei 200°C zu 2 mm starken Platten gepresst. Aus den Platten werden Prüfkörper von 40 x 40 x 2 mm ausgeschnitten. Diese werden in einem Weather-O-meter® WRC 600 mit UV-Licht belichtet. In regelmässigen Abständen werden Proben entnommen und deren Vergilbung gemäss ASTM D 1925 gemessen.
Die mit der Belichtungszeit einhergehende Vergilbung, ausgedrückt in ΔYI (YI = Yellowness Index; ΔYI = Unterschied in YI-Wert zwischen unbelichteter und entsprechender belichteter Probe) und nach der angegebenen Methode ermittelt, ist in der Tabelle 1 wiedergegeben.

[2] = Yellowing (ASTM D 1925) after oven ageing, ABS/PBT blend (Example 3)
Experimental: Beispiel 3: Das ABS-Copolymer Granulat gemäss Beispiel 2 wird mit derselben Menge Polybutylenterephtahlat, (PBT CRASTIN® S 600, Ciba-Geigy) vermischt. Das Polymerblend wird in einem Zweischnecken-Extruder (Temperatur-Zyklus: 210°C/230°C/ 235°C/ 240°C) hergestellt. Proben von 12,7 x 60,0 x 2,0 mm werden in einer Arburg-Spritzgussanlage gespritzt bei einer maximalen Verarbeitungstemperatur von 260°C. Diese Plättchen werden in einem Ofen bei 200°C und bei 160°C gealtert. In regelmässigen Abständen werden die Proben entnommen und deren Vergilbung gemäss ASTM D 1925 gemessen.

[3] = Yellowing (ASTM D 1925) after UV exposure in Weather-Ometer WRC 600, ABS/SAN/polycarbonate blend (Example 2); settings: Weather-Ometer WRC 600, 2 mm plates
Experimental: (§1) Beispiel 2: Das ABS-Copolymer gemäss Beispiel 1 wird in Pulverform mit derselben Menge von Styrolacrylnitril-Copolymer (Suspension SAN, Kostil, Montedipe), mit gegebenenfalls weiteren Additiven, wie z.B. einem UV-Absorber (Tinuvin® 234, Ciba-Geigy AG) und einem Phosphit (Irgafos® 168, Ciba-Geigy AG), in einem Rhönrad vermischt. Die Mischung wird in einem Zweischnecken-Extruder (Temperatur-Zyklus : 210°C/ 210°C/ 215°C/ 220°C) verarbeitet und granuliert.
(§2) Das erhaltene ABS-Granulat wird mit derselben Menge von Polycarbonat-Granulat (PC Calibre®, Dow) vermischt. Das Polymerblend wird in einem Zweischnecken-Extruder (Temperatur Zyklus : 240°C/ 240°C/ 250°C) hergestellt.
Die erhaltenen Mischungen (Blends) werden in einer Heizpresse bei 200°C zu 2 mm starken Platten gepresst. Aus den Platten werden Prüfkörper von 40 x 40 x 2 mm ausgeschnitten. Diese Plättchen werden in einem Weather-Ometer® WRC 600 mit UV-Licht belichtet. In regelmässigen Abständen werden Proben entnommen und deren Vergilbung (oder Yellowness Index) gemäss Methode ASTM D 1925 gemessen.
Die mit der Belichtungszeit einhergehende Vergilbung is in der Tabelle 2 wiedergegeben.

[4] = Impact bending strength (ASTM D 4508-85) after UV exposure in Xenotest 450, ABS/SAN/polycarbonate blend (Example 2); parameters: key to Schlagbiegefestigkeit in kJ/m^2 nach 200 Stunden in Xenotest 450: KB = Kein Bruch; settings: energy required to break
Experimental: as §1, §2
Weitere Prüfkörper von 12,7 x 60,0 x 2,0 mm werden in einem Xenotest 450 mit UV-Licht belichtet. In regelmässigen Abständern werden Proben entnommen und deren Schlagbiegefestigkeit gemäss Methode ASTM D 4508-85 gemessen. Dabei erfolgt der Pendelschlag auf die belichtete Seite der Probe.
In Tabelle 3 ist die für den Bruch der Probe erforderliche Energie angegeben. Je höher dieser Wert ist, desto höher ist die Schlagbiegefestigkeit der Probe. Bei ungeschädigten Proben erfolgt kein Bruch.

## CC(C)(c1ccccc1)c1cc(-n2nc3ccccc3n2)c(O)c(C(C)(C)c2ccccc2)c1 [0,3 % UV- Absorber *]
[1]; 250 h UV
  Δ YI nach Belichtungszeit von 250 h: -7,0
[1]; 500 h UV
  Δ YI nach Belichtungszeit von 500 h: -3,0
[1]; 1000 h UV
  Δ YI nach Belichtungszeit von 1000 h: 7,5
[1]; 1250 h UV
  Δ YI nach Belichtungszeit von 1250 h: 12,1
[1]; 1500 h UV
  Δ YI nach Belichtungszeit von 1500 h: 14,9

## CC(C)(c1ccccc1)c1cc(-n2nc3ccccc3n2)c(O)c(C(C)(C)c2ccccc2)c1 [0,50 % TINUVIN® 234]
[2]; oven 160°C, 60 min
  Δ YI nach Ofenalterung bei 160°C nach 60 min: 4,7
[2]; oven 160°C, 90 min
  Δ YI nach Ofenalterung bei 160°C nach 90 min: 10,8
[2]; oven 160°C, 120 min
  Δ YI nach Ofenalterung bei 160°C nach 120 min: 11,6
[2]; oven 160°C, 160 min
  Δ YI nach Ofenalterung bei 160°C nach 160 min: 20,4
[2]; oven 160°C, 840 min
  Δ YI nach Ofenalterung bei 160°C nach 840 min: 56,3
[2]; oven 200°C, 10 min
  Δ YI nach Ofenalterung bei 200°C nach 10 min: 6,0
[2]; oven 200°C, 20 min
  Δ YI nach Ofenalterung bei 200°C nach 20 min: 16,4
[2]; oven 200°C, 40 min
  Δ YI nach Ofenalterung bei 200°C nach 40 min: 33,1
[2]; oven 200°C, 60 min
  Δ YI nach Ofenalterung bei 200°C nach 60 min: 43,9
[2]; oven 200°C, 90 min
  Δ YI nach Ofenalterung bei 200°C nach 90 min: 55,3
[3]; 500 h UV
  Δ YI nach Belichtungszeit von 500 h: -7
[3]; 1000 h UV
  Δ YI nach Belichtungszeit von 1000 h: 1,1
[3]; 2000 h UV
  Δ (YI) nach Belichtungszeit von 2000 h: 16,1
[3]; 3000 h UV
  Δ (YI) nach Belichtungszeit von 3000 h: 23,4
[3]; 4000 h UV
  Δ (YI) nach Belichtungszeit von 4000 h: 23,9
[4]; 200 h Xenotest 450
  Schlagbiegefestigkeit in kJ/m^2 nach 200 Stunden in Xenotest 450: KB
[4]; 300 h Xenotest 450
  Schlagbiegefestigkeit in kJ/m^2 nach 300 Stunden in Xenotest 450: 15±2 kJ/m^2
[4]; 500 h Xenotest 450
  Schlagbiegefestigkeit in kJ/m^2 nach 500 Stunden in Xenotest 450: 13±1 kJ/m^2
[4]; 1000 h Xenotest 450
  Schlagbiegefestigkeit in kJ/m^2 nach 1000 Stunden in Xenotest 450: 11±1 kJ/m^2
[4]; 1500 h Xenotest 450
  Schlagbiegefestigkeit in kJ/m^2 nach 1500 Stunden in Xenotest 450: 11±1 kJ/m^2
